Experimental findings from US20140010939A1, “Sweetness Enhancers, Sweetener Compositions, Methods of Making the Same and Consumables Containing the Same” (Nutrinova Nutrition Specialties & Food Ingredients GmbH, priority 2011, published 2014) are described below.

Molecules are shown by their SMILES.

Series [1] can be described thus: Taste and spit assay phase II - assessment of fructose enhancing features. The class given is in vivo. Conditions: 20 μM with fructose (4%) in 0.5% ethanol versus fructose (4%) only, 5 individuals, 10 ml. How it is done: The taste of a sample of compound of formula (Ia) with regard to sweetness and fructose enhancing features was assessed by using a panel of trained sensory evaluators experienced in the sweet taste estimation procedure. 5 individuals were asked to taste the quality of single samples of 10 ml volume. Panelists were asked to take a sample of the liquid to be assessed (20 μM test substance compound of formula (Ia) in 0.5% ethanol) into the mouth and after some time allowed for taste perception to spit the sample out completely. Subsequently, the panelists were asked to rinse their mouth well with water or black tea to reduce any potential carry over effects. The tasting of a sample could be repeated if required. In the next step the panelists were asked to answer questions in a pairwise comparison test to determine the enhancement of sweet taste of the test substance with fructose relative to fructose only. Again, 5 individuals were given samples of 10 ml volume. This time two samples were prepared for direct comparison regarding sweetness. One sample contained fructose (4%) in solvent (0.5% ethanol) and the other sample additionally contained 20 μM of the test substance compound of formula (Ia). Designation of the samples with A and B was randomized and decoded after the taste procedure. […]

A short description of series [2]: Solubility assessment in buffer (visual check by two persons). The class given is physicochemical. The method, then:
20 μmol (8.96 mg) of the compound of formula (Ia) were used for samples preparation. The samples were partitioned into two portions for each buffer system and placed into 1.6 ml glass vials. To each of the vials 100 μl of the respective buffer solution was added to prepare the 100 mM samples. All Samples were thoroughly sonicated and vortexed to yield homogenous solutions or suspensions. The resulting set of samples consisted of • Compound of formula (Ia)—100 mM, buffer 3.0 • Compound of formula (Ia)—100 mM, buffer 6.5
In a second step from each of the prior listed samples 7.5 μl were pipetted into 1.6 ml glass vials followed by addition of 142.5 μl of the respective buffer solution. The resulting set of samples consisted of: • Compound of formula (Ia)—5 mM, buffer 3.0 • Compound of formula (Ia)—5 mM, buffer 6.5
In a third step, after sonication and vortexing to yield homogenous solutions or suspensions, 25 μl from each of the samples listed above were pipetted into 1.6 ml glass vials followed by addition of 100 μl of the respective buffer solution. The resulting set of samples consisted of: • Compound of formula (Ia)—1 mM, buffer 3.0 • Compound of formula (Ia)—1 mM, buffer 6.5
After the preparation of all 6 samples, the entire set was sonicated and vortexed again.
Afterwards the set of 6 samples was placed into a deep freezer and stored at −22° C. for 72 h. After that period, the samples were thawed, sonicated, and vortexed.
In a final step the set of 6 samples was placed into a dark box at 23° C. for 72 h. After that period, the samples were sonicated, and vortexed.
The results of the solubility study are documented in three tables. Three categories for the state of solution are in generally used: “Yes”, “Incomplete” and “No”. The category “Yes” is only used in case of a clear flawless solution. The category “Incomplete” is used in case of a visible strong reduction of undissolved matter. The category “No” was used for all other cases.

Take `CC(=O)N(O)CCCCCNC(=O)C(O)(CC(=O)O)CC(=O)NCCCN(O)C(C)=O` (centres unmarked) [compound of formula (Ia)]: the “Sweetness in pairwise comparison with fructose only” value in series [1] is given as “All 5 panelists identified the sample containing 4% fructose with the compound of formula (Ia) as sweeter than the sample containing 4% fructose only”. Besides, the Dissolved after freezing/thawing result in series [2] (1 mM, buffer 3.0, after −22° C. for 72 h and thawing) is recorded as “yes”; in series [2] (1 mM, buffer 6.5, after −22° C. for 72 h and thawing) it was “yes”; in series [2] (5 mM, buffer 3.0, after −22° C. for 72 h and thawing), “yes”; in series [2] (5 mM, buffer 6.5, after −22° C. for 72 h and thawing), “yes”; in series [2] (100 mM, buffer 3.0, after −22° C. for 72 h and thawing) it was “yes”; in series [2] (100 mM, buffer 6.5, after −22° C. for 72 h and thawing), “yes”. The “Dissolved after three days at room temperature” value in series [2] (1 mM, buffer 3.0, dark box at 23° C. for 72 h) is recorded as “yes”; in series [2] (1 mM, buffer 6.5, dark box at 23° C. for 72 h), “yes”; in series [2] (5 mM, buffer 3.0, dark box at 23° C. for 72 h) it was “yes”; in series [2] (5 mM, buffer 6.5, dark box at 23° C. for 72 h), “yes”; in series [2] (100 mM, buffer 3.0, dark box at 23° C. for 72 h) it was “yes”; in series [2] (100 mM, buffer 6.5, dark box at 23° C. for 72 h) it was “yes”. In addition, the Immediately dissolved result in series [2] (1 mM, buffer 3.0, directly after sample preparation) was “yes”; in series [2] (1 mM, buffer 6.5, directly after sample preparation), “yes”; in series [2] (5 mM, buffer 3.0, directly after sample preparation), “yes”; in series [2] (5 mM, buffer 6.5, directly after sample preparation), “yes”; in series [2] (100 mM, buffer 3.0, directly after sample preparation), “yes”; in series [2] (100 mM, buffer 6.5, directly after sample preparation), “yes”. Further, in series [2] (summary: 1, 5 and 100 mM in water with buffer at pH 3.0 and 6.5), the “Solubility (overall)” value is reported as “immediately dissolved at all conditions”.
